# Assay results reported in US20220128542A1, “TREATMENT EFFICIENCY EVALUATION” (TX MEDIC AB, priority 2019, published 2022).
# System: Mouse motor neurons
# Test: Gene expression array and pathway/upstream regulator analysis in motor neurons (Example 2)
# Format: cell-based
# Details: 0.01 mg/ml
# Method: For each cell line, n=8×25 cm^2 culture flasks were set up. Two flasks were harvested for each cell type on the day of treatment (24 hours after seeding). This represents the Day0 time point. From the remaining flasks, three flasks were treated with Control Medium and three were treated with Culture Medium (CM) containing LMW-DS to give a final concentration of 0.01 mg/ml. Cells from the treated flasks were collected after 48 hours. Therefore the collected data represent (a) untreated cells (Day0 Controls and Day2 Controls) and (b) cells treated with LMW-DS for 48 hours (Day2 LMW-DS treated).
# 25 cm^2 flasks were coated by adding 2 ml per flask of a solution of 50 μg/ml poly-d-lysine in Hank's balanced salt solution (HBSS) and incubating overnight at 37° C. in the dark. Flasks were washed with cell culture water and air-dried for 30 min in the dark. Flasks were coated by adding 1 ml per flask of a solution of 25 μg/ml laminin in phosphate-buffered saline (PBS) and incubating for 2 hour at 37° C. in the dark. The laminin flasks were washed with PBS three times before plating cells.
# The culture medium was prepared according to Table 5.
# Medium (see Table 5) was pre-warmed to 37° C. Cells were thawed in a 37° C. water bath for no longer than 2 min. 9 ml of media was gently added drop-wise. The cell suspension was mixed by inverting the tube carefully twice. The cells were counted with a Cellometer. The cells were centrifuged for 5 minutes at 200×g. Supernatant was removed (to the last 0.5 ml) and cells were gently re-suspended by trituration. The cells from the 8 vials were mixed and distributed equally into the previously coated 25 cm^2 flasks (n=8). Cells were incubated at 37° C. with 5% CO2 for 24 hours before treatment.
# A fresh 100× LMW-DS stock (1.0 mg/ml) was prepared in sterile DMEM-F12. The concentrated drug stock was sterile filtered and added to the respective culture media (19.6 ml CM and 0.4 ml LMW-DS stock solution). The Control was made using 19.6 ml CM and 0.4 ml of DMEM-F12. LMW-DS and CM were added to the respective flasks (5 ml each) to reach the 0.01 mg/ml concentration of LMW-DS in each dish with a total of 10 ml CM each.
# CM was aspirated into a clean and labelled 15 ml Falcon tube. The flasks (without culture medium) were placed into the −80° C. freezer for 30 minutes. The CM in the Falcon tubes was spun at 3000×g for 5 minutes. Supernatant was removed and the small pellet was re-suspended in 2.5 ml Trizol:Water (4:1) solution at room temperature (RT, ˜22° C.).
# The frozen flasks were removed one-by one from the freezer and the Trizol-Water from the appropriate tubes was moved to the flask. Flasks were left at RT for 5 minutes before the content was aspirated back into the 15 ml Falcon tube (after washing the bottom of the flask with the solution thoroughly). The flasks were inspected under the microscope to ensure full removal of cells. The collected lysates in the 15 ml Falcon tubes were placed into the −80° C. freezer.
# Falcon tubes containing the homogenates were removed from the freezer and stored for 5 minutes at RT to permit the complete dissociation of nucleoprotein complexes.
# Two aliquots of 1 ml lysate were removed from each sample and 200 μl of chloroform was added to each (0.2 ml of chloroform per 1 ml of TRIzol Reagent used during the cell lysis step) and the tube was shaken vigorously. Samples were stored at RT for 2-3 minutes and subsequently centrifuged at 12,000×g for 15 minutes at 4° C.
# The mixture separated into three layers: a lower red phenol-chloroform phase, an interphase and a colorless upper aqueous phase. The RNA remained in the top aqueous phase, DNA in the white middle (interphase) phase and protein in the pink bottom (organic) phase. The top ¾ of the aqueous phase was transferred to a new clean Eppendorf tube.
# The RNA was precipitated from the aqueous phase by adding an equal amount of 100% ethanol. The precipitated RNA was fixed onto a Spin Cartridge, washed twice and dried. […]
substance,measurement,setting,value
sodium salt of dextran sulfate [LMW-DS],number of genes: no effect / abolished nutrient effect,48 hours,177
same,number of genes: no effect / new effect induced by LMW-DS,48 hours,108
same,number of genes: no effect / total,48 hours,285
same,number of genes: significant downregulation / abolished nutrient effect,48 hours,47
same,number of genes: significant downregulation / enhanced response to nutrients,48 hours,36
same,number of genes: significant downregulation / new effect induced by LMW-DS,48 hours,375
same,number of genes: significant downregulation / not different from control,48 hours,104
same,number of genes: significant downregulation / total,48 hours,562
same,number of genes: significant upregulation / abolished nutrient effect,48 hours,40
same,number of genes: significant upregulation / enhanced response to nutrients,48 hours,103
same,number of genes: significant upregulation / new effect induced by LMW-DS,48 hours,71
same,number of genes: significant upregulation / not different from control,48 hours,75
same,number of genes: significant upregulation / total,48 hours,289
same,number of genes: total / abolished nutrient effect,48 hours,264
same,number of genes: total / enhanced response to nutrients,48 hours,139
same,number of genes: total / new effect induced by LMW-DS,48 hours,554
same,number of genes: total / not different from control,48 hours,179
same,number of genes: total / total,48 hours,1136
same,differentially expressed genes,D0 control vs D2 LMW-DS treated,315 genes
same,differentially expressed genes,second comparison,425 genes
